Measurements reported in the Kinase Knowledgebase extract (Sharma et al. 2016).

Each compound was assayed against CDK2 (UniProt P24941) (assay: Enzyme Assay). Conditions: not given.

Cc1cc(F)c(C(=O)c2sc(Nc3ccc(S(=O)(=O)NCc4ccc(C)o4)cc3)nc2N)c(F)c1 and Nc1nc(Nc2ccc(S(=O)(=O)NCc3cc4ccccc4o3)cc2)sc1C(=O)c1c(F)cccc1F cannot be ordered by Ki: under 10 nM for the first, 4.6 nM for the second.

First: CC(C)(O)CCCCNS(=O)(=O)c1ccc(Nc2nc(N)c(C(=O)c3c(F)cccc3F)s2)cc1
Second: CC(C)CCCCNS(=O)(=O)c1ccc(Nc2nc(N)c(C(=O)c3c(F)cccc3F)s2)cc1
The Ki of the first is 7.7-fold lower: 0.48 nM for the first, 3.7 nM for the second. The first binds more tightly here.

Compared with Nc1nc(Nc2ccc(S(=O)(=O)NCC3CCNCC3)cc2)sc1C(=O)c1c(F)cccc1F, CCOC(=O)CNS(=O)(=O)c1ccc(Nc2nc(N)c(C(=O)c3c(F)cccc3F)s2)cc1 is 2.7-fold lower in Ki: 13 nM for the first, 4.9 nM for the second. The second binds more tightly here.

Compared with CCCOCCNS(=O)(=O)c1ccc(Nc2nc(N)c(C(=O)c3c(F)cccc3F)s2)cc1, Cn1cncc1CNS(=O)(=O)c1ccc(Nc2nc(N)c(C(=O)c3c(F)cccc3F)s2)cc1 is higher in Ki: under 5 nM for the first, 6.9 nM for the second. The first binds more tightly here.

Nc1nc(Nc2ccc(S(=O)(=O)NCCc3cccc(Cl)c3)cc2)sc1C(=O)c1c(F)cccc1F and Nc1nc(Nc2ccc(S(=O)(=O)NCCCc3ccccc3)cc2)sc1C(=O)c1c(F)cccc1F cannot be ordered by Ki: under 10 nM for the first, 3.6 nM for the second.

Same assay, conditions: concentration not given here

Compared with CCN(CC)CCN(C)S(=O)(=O)c1ccc(Nc2nc(N)c(C(=O)c3c(F)cccc3F)s2)cc1, CCN(CC)CCCN(C)S(=O)(=O)c1ccc(Nc2nc(N)c(C(=O)c3c(F)cccc3F)s2)cc1 is lower in inhibition: 27% for the first, 21% for the second.

Compared with COC(=O)CN(C)S(=O)(=O)c1ccc(Nc2nc(N)c(C(=O)c3c(F)cccc3F)s2)cc1, COCCN(C)S(=O)(=O)c1ccc(Nc2nc(N)c(C(=O)c3c(F)cccc3F)s2)cc1 is lower in inhibition: 18% for the first, 4% for the second.

Going from Nc1nc(Nc2ccc(S(=O)(=O)N3CCN(CC(=O)N4CCCC4)CC3)cc2)sc1C(=O)c1c(F)cccc1F to Nc1nc(Nc2ccc(S(=O)(=O)N3CCN(CCN4CCOCC4)CC3)cc2)sc1C(=O)c1c(F)cccc1F, the inhibition falls from 14% to 11%.

Going from CN(CC(O)CO)S(=O)(=O)c1ccc(Nc2nc(N)c(C(=O)c3c(F)cccc3F)s2)cc1 (stereo unspecified) to CN(CCO)S(=O)(=O)c1ccc(Nc2nc(N)c(C(=O)c3c(F)cccc3F)s2)cc1, the inhibition rises from 15% to 28%.

Going from N#CCCN(C1CC1)S(=O)(=O)c1ccc(Nc2nc(N)c(C(=O)c3c(F)cccc3F)s2)cc1 to CN(CCC#N)S(=O)(=O)c1ccc(Nc2nc(N)c(C(=O)c3c(F)cccc3F)s2)cc1, the inhibition rises from 8% to 27%.

Compared with NC(=O)C1CCN(S(=O)(=O)c2ccc(Nc3nc(N)c(C(=O)c4c(F)cccc4F)s3)cc2)CC1, Nc1nc(Nc2ccc(S(=O)(=O)N3CCC(CCO)CC3)cc2)sc1C(=O)c1c(F)cccc1F is lower in inhibition: 40% for the first, 21% for the second.

Going from Nc1nc(Nc2ccc(S(=O)(=O)N3CCCC(CO)C3)cc2)sc1C(=O)c1c(F)cccc1F (stereo unspecified) to Nc1nc(Nc2ccc(S(=O)(=O)N3CCSCC3)cc2)sc1C(=O)c1c(F)cccc1F, the inhibition falls from 30% to 23%.

First: Nc1nc(Nc2ccc(S(=O)(=O)N(CCO)CCO)cc2)sc1C(=O)c1c(F)cccc1F
Second: CCN(CCO)S(=O)(=O)c1ccc(Nc2nc(N)c(C(=O)c3c(F)cccc3F)s2)cc1
The inhibition of the first is lower: -1% for the first, 24% for the second.

Compared with CN(CCC1OCCO1)S(=O)(=O)c1ccc(Nc2nc(N)c(C(=O)c3c(F)cccc3F)s2)cc1, CN(C)CCN(C)S(=O)(=O)c1ccc(Nc2nc(N)c(C(=O)c3c(F)cccc3F)s2)cc1 is higher in inhibition: 20% for the first, 26% for the second.

First: Nc1nc(Nc2ccc(S(=O)(=O)N3CCOCC3)cc2)sc1C(=O)c1c(F)cccc1F
Second: CN1CCN(S(=O)(=O)c2ccc(Nc3nc(N)c(C(=O)c4c(F)cccc4F)s3)cc2)CC1
The inhibition of the first is higher: 27% for the first, 18% for the second.

Compared with CN1CCC(N(C)S(=O)(=O)c2ccc(Nc3nc(N)c(C(=O)c4c(F)cccc4F)s3)cc2)C1 (stereo unspecified), CN1CCC(N(C)S(=O)(=O)c2ccc(Nc3nc(N)c(C(=O)c4c(F)cccc4F)s3)cc2)CC1 is lower in inhibition: 22% for the first, 9% for the second.

First: C=CCN1CCN(S(=O)(=O)c2ccc(Nc3nc(N)c(C(=O)c4c(F)cccc4F)s3)cc2)CC1
Second: Nc1nc(Nc2ccc(S(=O)(=O)N3CCN(CCOCCO)CC3)cc2)sc1C(=O)c1c(F)cccc1F
The inhibition of the first is higher: 6% for the first, -1% for the second.

Going from CN(CCc1ccccn1)S(=O)(=O)c1ccc(Nc2nc(N)c(C(=O)c3c(F)cccc3F)s2)cc1 to CN(CCc1ccccc1)S(=O)(=O)c1ccc(Nc2nc(N)c(C(=O)c3c(F)cccc3F)s2)cc1, the inhibition falls from 16% to 9%.

Going from COCCN(CCOC)S(=O)(=O)c1ccc(Nc2nc(N)c(C(=O)c3c(F)cccc3F)s2)cc1 to CN(CCCCCCO)S(=O)(=O)c1ccc(Nc2nc(N)c(C(=O)c3c(F)cccc3F)s2)cc1, the inhibition rises from 8% to 28%.

First: CN(Cc1cccnc1)S(=O)(=O)c1ccc(Nc2nc(N)c(C(=O)c3c(F)cccc3F)s2)cc1
Second: CN(CCc1ccncc1)S(=O)(=O)c1ccc(Nc2nc(N)c(C(=O)c3c(F)cccc3F)s2)cc1
The inhibition of the first is lower: 12% for the first, 19% for the second.

Nc1nc(Nc2ccc(S(=O)(=O)N3CCN(c4ccc(F)cc4)CC3)cc2)sc1C(=O)c1c(F)cccc1F showed an inhibition of 37%.
